Results from patent US20190083497A1, “MODULATION OF BLOOD BRAIN BARRIER PERMEABILITY” (Cornell University, priority 2008, published 2019).

Key:
blood brain barrier [1] = test: Evans Blue dye extravasation across the blood brain barrier after single i.v. treatment; assay type: in vivo, mouse; details: 100 μl 0.01 nM single i.v. one hour before dye, brain harvested four hours after dye
Procedure: The objective of this experiment was to determine if the blood brain barrier could be modulated by activation of adenosine receptors. NECA is a non-selective adenosine receptor agonist, with similar affinities for A1, A2a and A3 adenosine receptors and a low affinity for the A2b adenosine receptor. In order to determine if activation of adenosine receptors would induce extravasation of Evans Blue dye across the blood brain barrier (BBB), mice were treated with: NECA, a non-selective adenosine receptor agonist (n=5, 100 μl 0.01 nM); SCH58261, an A2a adenosine receptor specific antagonist (n=5, 1 mg/kg); pertussis toxin, an agent known to induce BBB leakiness and as such used as a positive control (n=7, 200 μl); and, PBS as a vehicle control (n=5, 100 μl). CD73^−/− mice, which lack the ability to produce extracellular adenosine, were also treated with NECA (n=4, 100 μl 0.01 nM). Treatments were administered as a single i.v. injection one hour prior to i.v. injection of 200 μl 1% Evans Blue dye ([…] total dye injected). Four hours after administration of Evans Blue, mice were anesthetized with a ketamine/xylazine mix and perfused via the left ventricle with ice cold PBS. […] Following extraction, the tissue/solvent mixture was centrifuged at 500×g for 30 minutes and 100 μl of supernatant was read on a BioTex spectrophotometer at 620 nm. Data is expressed as μg Evans Blue/ml DMF.

hCMEC/D3 cells [2] = test: Jurkat cell migration across hCMEC/D3 transwell in vitro BBB; assay type: cell-based, human; details: hCMEC/D3 on Transwell; migrated cells counted after 24 hours
Source text: The blood brain barrier (BBB) is comprised of endothelial cells. During late stages of EAE, lymphocytes are known to cross the BBB. In order to determine if adenosine receptor stimulation of brain endothelial cells could promote lymphocyte migration through the BBB, an in vitro BBB was established. The human brain endothelial cell line hCMEC/D3 (Weksler et al., “Blood-brain Barrier-specific Properties of a Human Adult Brain Endothelial Cell Line,” J. Neurochem. 19(13):1872-4 (2005); Poller et al., “The Human Brain Endothelial Cell Line hCMEC/D3 as a Human Blood-brain Barrier Model for Drug Transport Studies,” J. Neurochem. 107(5):1358-1368 (2008), which are hereby incorporated by reference in their entirety) was obtained, which has been previously described as having BBB properties.
hCMEC/D3 cells were seeded onto Transwell and allowed to grow to confluencey. 2×10^6 Jurkat cells were added to the upper chamber with or without NECA (general adenosine receptor [AR] agonist), CCPA (A1AR agonist), CGS 21680 (A2AAR agonist), or DMSO vehicle. After 24 hours, migrated cells in the lower chamber were counted. Values are relative to the number of cells that migrate through non-HCMECD3 seeded transwells.

Z310 cells = test: Jurkat cell migration across Z310 choroid plexus cell transwell; assay type: cell-based, murine; details: Z310 cells on Transwell; migrated cells counted after 24 hours; n=1
Procedure: The choroid plexus (“CP”) controls lymphocyte migration into the CNS. The CP expresses the A1 and A2a adenosine receptors. EAE is prevented in mice when A2a adenosine receptor activity is blocked. EAE is enhanced when the A1 adenosine receptor is missing. It was hypothesized that A2a adenosine receptor activation promotes lymphocyte migration across the CP. Z310 cells are a murine choroid plexus cell line. To test the hypothesis, Transwell membranes were seeded with Z310 cells and allowed to grow to confluencey. 2×10^6 Jurkat cells were added to the upper chamber with or with out NECA (n=1, general AR agonist), CCPA (n=1, A1AR agonist), CGS 21680 (n=1, A2AAR agonist), or DMSO vehicle(n=1). After 24 hours, migrated cells in the lower chamber were counted. Values are relative to the number of cells that migrate through non-Z310 seeded transwells and the results are shown in FIG. 12.

hCMEC/D3 cells [3] = test: cAMP levels in hCMEC/D3 cells (cAMP Screen kit); assay type: cell-based, human; details: 15 minutes treatment, various concentrations
Procedure: Adenosine receptor activation regulates cAMP levels in cells. In order to determine the sensitivity of human brain endothelial cells to adenosine receptor induced cAMP regulation, human brain endothelial cells were cultured with adenosine receptor agonists at various concentrations, followed by cAMP level analysis, as shown in FIG. 13.
HCMECD3 cells were grown to confluencey on 24 well plates. As adenosine receptor (“AR”) stimulation is known to influence cAMP levels, cells were treated with or without various concentrations of NECA (general AR agonist), CCPA (A1AR agonist), CGS 21680 (A2AAR agonist), DMSO vehicle, or Forksolin (induces cAMP). After 15 minutes, lysis buffer was added and the cells were frozen at −80 C to stop the reaction. Duplicate samples were used for each condition. cAMP levels were assayed using a cAMP Screen kit (Applied Biosystems, Foster City, Calif.).

blood brain barrier [4] = test: Evans Blue dye extravasation across the blood brain barrier in mice immunized for EAE; assay type: in vivo, mouse; details: WT EAE mice; 100 μl 0.01 nM on day 1, 3, 5, 7, 9; dye on day 10, brain harvested six hours later; vs PBS control EAE mice
Procedure: In order to determine if activation of adenosine receptors would induce extravazation of Evans Blue dye across the blood brain barrier (BBB), mice were first treated on day one with NECA, a non-selective adenosine receptor agonist (n=2, 100 μl 0.01 nM); and, PBS as a vehicle control (n=2, 100 μl). On day 2 mice were then immunized with CFA-MOG35-55 and pertussis to induce EAE. Then NECA or PBS was administered every other day on day 3, day 5, day 7 and day 9. On day 10, mice were injected intravenously with 200 μl 1% Evans Blue dye ([…] total dye injected). Six hours after administration of Evans Blue, mice were anesthetized with a ketamine/xylazine mix and perfused via the left ventricle with ice cold PBS. Brains were harvested and homogenized in n,n-dimethylformamide (DMF) at 5 μl/mg (v:w). Tissue was incubated for 72 hours at room temperature in DMF to extract the dye. Following extraction, the tissue/solvent mixture was centrifuged at 500×g for 30 minutes and 100 μl of supernatant was read on a BioTex spectrophotometer at 620 nm.

CCNC(=O)[C@H]1O[C@@H](n2cnc3c(N)ncnc32)[C@H](O)[C@@H]1O [NECA]
Evans Blue dye migration across the blood brain barrier (blood brain barrier [1]; CD73-/- mice, vs PBS control): almost five fold increase in dye migration vs. the PBS control
Evans Blue dye migration across the blood brain barrier (blood brain barrier [1]; WT mice, vs control mice): increase over control mice
lymphocyte (Jurkat) migration across the in vitro BBB (hCMEC/D3 cells [2]): induced some migration
lymphocyte (Jurkat) migration across the CP (Z310 cells): induced migration
cAMP levels (hCMEC/D3 cells [3]): increased cAMP levels
BBB permeability (Evans Blue dye migration into the CNS) (blood brain barrier [4]): increase in BBB permeability over PBS control EAE mice
